Patent publication US7838674B2, “Tetracyclic lactame derivatives” (Novartis AG, priority 2007, dated 2010)
Counter-ions that a name gives are not always drawn.

These compounds were tested against T1, MAPKAPK2 enzyme (HIS-MK2, Invitrogen PV4019) (Homo sapiens, UniProt P49137) (assay: Alternative MAPKAPK2 assay (Caliper microfluidic mobility shift, HSP27-peptide)). Conditions: HIS-MK2 0.013 nM, ATP 10 μM, 60 min at 30° C.
T1 construct: His; purchased Invitrogen PV4019
T1 sequence (P49137 whole entry): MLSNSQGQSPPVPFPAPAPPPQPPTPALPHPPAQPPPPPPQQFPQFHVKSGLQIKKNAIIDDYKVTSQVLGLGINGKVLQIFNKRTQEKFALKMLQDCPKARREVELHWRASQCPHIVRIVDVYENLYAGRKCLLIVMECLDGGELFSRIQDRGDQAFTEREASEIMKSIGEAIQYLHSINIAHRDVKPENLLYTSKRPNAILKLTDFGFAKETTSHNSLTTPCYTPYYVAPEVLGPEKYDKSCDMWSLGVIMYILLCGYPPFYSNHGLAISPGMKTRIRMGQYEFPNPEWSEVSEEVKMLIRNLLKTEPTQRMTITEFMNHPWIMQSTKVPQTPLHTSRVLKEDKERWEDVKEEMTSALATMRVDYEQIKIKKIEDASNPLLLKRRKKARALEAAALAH
Assay type: biochemical
An IC50 of 27 nM was found for `CN(C)CCOc1cc(-c2cc3c(cn2)CCc2c-3[nH]c3c2C(=O)NCC32CC2)ccc1F` [Example 311, 2-[3-(2-Dimethylamino-ethoxy)-4-fluoro-phenyl]-10-spirocyclopropyl-5,6,8,9,10,11-hexahydro-3,8,11-triaza-benzo[a]fluoren-7-one] in this work.
An IC50 of 15 nM was found for `N#Cc1cc(-c2cc3c(cn2)CCc2c-3[nH]c3c2C(=O)NCC32CC2)ccc1N1CCC(O)C1` (stereo not shown) [Example 312, 2-(3-Hydroxy-pyrrolidin-1-yl)-10-spirocyclopropyl-5-(7-oxo-6,7,8,9,10,11-hexahydro-5H-3,8,11-triaza-benzo[a]fluoren-2-yl)-benzonitrile] in this work.

These compounds were tested against human MK2 (Homo sapiens, UniProt P49137) (assay: MAPKAPK2 kinase assay (TR-FRET, Hsp27 peptide substrate)). Conditions: not given.
human MK2, sequence (P49137 whole entry): as above
An IC50 of 27 nM was found for `CN(C)CCOc1cc(-c2cc3c(cn2)CCc2c-3[nH]c3c2C(=O)NCC32CC2)ccc1F` [Example 311, 2-[3-(2-Dimethylamino-ethoxy)-4-fluoro-phenyl]-10-spirocyclopropyl-5,6,8,9,10,11-hexahydro-3,8,11-triaza-benzo[a]fluoren-7-one] in this work.
An IC50 of 15 nM was found for `N#Cc1cc(-c2cc3c(cn2)CCc2c-3[nH]c3c2C(=O)NCC32CC2)ccc1N1CCC(O)C1` (stereo not shown) [Example 312, 2-(3-Hydroxy-pyrrolidin-1-yl)-10-spirocyclopropyl-5-(7-oxo-6,7,8,9,10,11-hexahydro-5H-3,8,11-triaza-benzo[a]fluoren-2-yl)-benzonitrile] in this work.
An IC50 of 15 nM was found for `CN(C)CCOc1ccc(-c2cc3c(cn2)CCc2c-3[nH]c3c2C(=O)NCC32CC2)cc1C#N` [Example 308, 2-(2-Dimethylamino-ethoxy)-5-(7-oxo-10-spirocyclopropyl-6,7,8,9,10,11-hexahydro-5H-3,8,11-triaza-benzo[a]fluoren-2-yl)-benzonitrile] in this work.
An IC50 of 38 nM was found for `COc1ccc(-c2cc3c(cn2)CCc2c-3[nH]c3c2C(=O)NC2(CC2)C3)cn1` [Example 88, 2-(1-Amino-cyclopropylmethyl)-8-(6-methoxy-pyridin-3-yl)-4,5-dihydro-1H-pyrrolo[2,3-f]isoquinoline-3-carboxylic acid lactam] in this work.
An IC50 of over 10 nM was found for `COc1ccc(-c2cc3c(cn2)CCc2c-3nn3c2C(=O)NC2(CN(C(C)=O)C2)C3)cc1` [Example 12, 2-(1-Acetyl-3-amino-azetidin-3-ylmethyl)-8-(4-methoxy-phenyl)-4,5-dihydro-2H-1,2,7-triaza-cyclopenta[a]naphthalene-3-carboxylic acid lactame] in this work.
An IC50 of 43 nM was found for `Cn1c2c(c3c1-c1nc(-c4cccc(F)c4)ncc1CC3)C(=O)NC1(CNC1)C2` [Example 27, 2-(3-Amino-azetidin-3-ylmethyl)-8-(3-fluoro-phenyl)-1-methyl-4,5-dihydro-1H-1,7,9-triaza-cyclopenta[a]naphthalene-3-carboxylic acid lactam hydrochloride] in this work.
An IC50 of 20 nM was found for `C[C@H](NC(=O)c1cccc(-c2cc3c(cn2)CCc2c-3[nH]c3c2C(=O)NC2(CC2)C3)c1)c1ccccc1` [Example 275] in this work.
An IC50 of 16 nM was found for `COc1ccc(CNC(=O)c2cccc(-c3cc4c(cn3)CCc3c-4[nH]c4c3C(=O)NC3(CC3)C4)c2)cn1` [Example 274] in this work.
An IC50 of 42 nM was found for `COc1cncc(-c2cc3c(cn2)CCc2c-3[nH]c3c2C(=O)NC2(CC2)C3)c1` [Example 87, 2-(1-Amino-cyclopropylmethyl)-8-(5-methoxy-pyridin-3-yl)-4,5-dihydro-1H-pyrrolo[2,3-f]isoquinoline-3-carboxylic acid lactam] in this work.
An IC50 of 14 nM was found for `N#Cc1cc(-c2cc3c(cn2)CCc2c-3[nH]c3c2C(=O)NCC32CC2)ccc1N1CCOCC1` [Example 307, 2-Morpholin-4-yl-5-(7-oxo-10-spirocyclopropyl-6,7,8,9,10,11-hexahydro-5H-3,8,11-triaza-benzo[a]fluoren-2-yl)-benzonitrile] in this work.
An IC50 of 11 nM was found for `O=C(NCc1ccccc1)c1cccc(-c2cc3c(cn2)CCc2c-3[nH]c3c2C(=O)NC2(CC2)C3)c1` [Example 276, 2-(1-Amino-cyclopropylmethyl)-8-(3-benzylcarbamoyl)-phenyl-4,5-dihydro-1H-pyrrolo[2,3-f]isoquinoline-3-carboxylic acid lactam] in this work.
